Measurements published in paper PMC10265003 (Royal Society Open Science, 2023).
Read-outs that look alike come from different tables or passages of the source. Positions of bridges follow the written chain, without caps; N, C: chain ends. Non-standard residues stand in square brackets, D forms with d. Residues, ends and D or L forms follow the SMILES beside them. Chains are numbered I, II in the order given. Bpa = N[C@@H](Cc1ccc(C(=O)c2ccccc2)cc1)C(=O)O; Dip = N[C@H](C(=O)O)C(c1ccccc1)c1ccccc1; hPhe = N[C@@H](CCc1ccccc1)C(=O)O; Ahx = NCCCCCC(=O)O

Key:
[1] = system: MCF-7 breast cancer line; assay type: cell-based, human
Experimental: (§1) The MTT assay was performed in accordance with previous reports. Briefly, the cells were seeded with a complete medium in 96-well plates at a rate of 10 000 cells and 100 µl per well, and adhesion to the plates was allowed for 24 h. Later, the complete medium was removed, and an incomplete medium was added for synchronization for another 24 h. The cells were then incubated at 37°C for 2 h with 100 µl of peptide at the evaluated concentrations (200, 100, 50, 25, 12.5 and 6.25 µg ml^−1). Next, the peptide was removed from the well and 100 µl of incomplete medium with 10% MTT was added and incubated for 4 h. The medium was replaced with 100 µl of isopropanol, and after 30 min of incubation at 37°C, the absorbance was measured at 575 nm. As a negative control, an incomplete culture medium with 10% MTT was used, and as a positive control, cells without MTT treatment were used. The IC50 value was determined from figure 1 (peptide concentration versus per cent cell viability) using a nonlinear regression model with variable slope and GraphPad Prism 9 statistical analysis software.

[2] = system: HeLa human cervical cancer cell line; assay type: cell-based; conditions: 2 h
Experimental: as §1

[3] = system: human primary fibroblasts; assay type: cell-based
Description: Rink amide resin, Fmoc-Arg(Pbf)-OH, Fmoc-Trp(Boc)-OH, Fmoc-Gln(Trt)-OH, Fmoc-Phe-OH, Fmoc-Lys(Boc)-OH, Fmoc-Leu-OH, Fmoc-Gly-OH, Fmoc-6-Ahx-OH, Fmoc-Lys(Fmoc)-OH, Triton-X, piperidine, N,N-dimethylformamide (DMF), dichloromethane (DCM), dicyclohexylcarbodiimide (DCC), 1-hydroxy-6-chloro-benzotriazole (6-Cl-HOBt), ninhydrin, potassium cyanide (KCN), ethanol, pyridine, phenol, trifluoroacetic acid (TFA), ethyl ether, triisopropylsilane (TIS), ethanedithiol (EDT), acetonitrile (ACN), methanol (MeOH) and solid phase extraction columns Supelco, Trypsin-EDTA solution and pepsin 2500 units mg^−1 were purchased from Sigma-Aldrich (St Louis, MO, USA). The non-natural amino acids diphenylalanine, 1-naphthyl-phenylalanine, 4-benzoyl-phenylalanine, homophenylalanine (hF), 4-(Fmoc-amino) benzoic acid (4-Abz) and 2-(Fmoc-amino) benzoic acid (2-Abz) were obtained from AAPPTec (Louisville, KY, USA). The cell lines MCF-7, HeLa, HEK-293 were purchased from ATCC (Manassas, VA). The primary cell culture of fibroblasts was obtained from the foreskin by the Laboratory of Cellular Physiology of the National University of Colombia, and the fibroblasts were cultured and frozen. Some vials were thawed and cultured for up to seven passes, since no transformation/immortalization was done. Annexin V and Alexa Fluor 488 conjugate was purchased from Invitrogen (Eugene, Oregon). The DMEM culture medium and trypsin were obtained from Sigma-Aldrich (St Louis, MO, USA). Bovine fetal serum was purchased from Gibco (Waltham, MA, USA). Calcium assay kit and Fluorescein CaspGLOW Active Caspase-8 or Caspase-9 Staining Kit were obtained for BD Biosciences (San Diego, CA, USA) and Invitrogen Thermo Fisher Scientific (Waltham, MA, USA), respectively.
as §1, with “The cells were then incubated at 37°C for 2 h with 100 µl of peptide at the evaluated concentrations (200, 100, 50, 25, 12.5 and 6.25 µg ml^−1).” left out

[4] = system: HEK-293 human kidney cell line; assay type: cell-based; conditions: 2 h
Experimental: as §1, with “The cells were then incubated at 37°C for 2 h with 100 µl of peptide at the evaluated concentrations (200, 100, 50, 25, 12.5 and 6.25 µg ml^−1).” left out

[5] = system: human erythrocytes; assay type: cell-based; conditions: 2 h
Experimental: Haemolysis assays were performed in accordance with Cárdenas et al.. The blood was donated by healthy volunteers with blood type O^+. First, 5 ml of peripheral blood in EDTA was centrifuged at 500 r.p.m. for 15 min, and the erythrocytes were separated and washed three times with 0.9% saline solution. Then 100 µl of peptide solution (final concentrations of 200 at 6.2 µg ml^−1) was mixed with 100 µl of erythrocytes (2% haematocrit) and incubated at 37°C for 2 h. It was then centrifuged at 2500 r.p.m. for 5 min and the absorbance of the supernatant was measured at 450 nm. Two controls were used; positive control: distilled water, and negative control: saline solution 0.9%.

[6] = biological target: pepsin (Sus scrofa, UniProt P00791); conditions: pH 2
Experimental: Pepsin was dissolved in 0.010 M HCl (pH 2.0). An aliquot of 50 µl was added to each peptide solution in a 1 : 100 (w/w) ratio. The peptides were dissolved in H2O-TFA 0.05% (v/v). This was incubated at 37°C for 3 h, aliquots were taken at 0 and 3 h, and the samples were heated for 5 min and then cooled at 4°C for the thermal inactivation of pepsin and characterized via HPLC and LC-MS.

[7] = biological target: trypsin (Sus scrofa, UniProt P00761)
Chain of trypsin (P00761 9-231): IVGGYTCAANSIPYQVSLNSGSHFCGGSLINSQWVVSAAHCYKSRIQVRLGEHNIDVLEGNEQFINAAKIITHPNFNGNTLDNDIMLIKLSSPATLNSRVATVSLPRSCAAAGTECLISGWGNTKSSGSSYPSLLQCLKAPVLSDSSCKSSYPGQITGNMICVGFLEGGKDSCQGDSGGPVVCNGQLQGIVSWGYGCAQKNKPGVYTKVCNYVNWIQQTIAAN
Experimental: Trypsin (20 μg) was dissolved in 450 µl of the buffer supplied by the manufacturer, and 50 µl was added to each peptide solution, maintaining a protease : peptide ratio of 1 : 100 (w/w). The samples were incubated at 37°C for 24 h. Aliquots were taken at 0, 5, 10, 15 and 20 min, the enzymatic reaction was stopped by adding 1 M HCl, and the mixture was analysed via RP-HPLC and LC-MS. Bovine serum albumin (BSA) and bovine lactoferrin (bLF) were used as the positive control, and the negative control was the peptide in buffer solution without trypsin.

Chain of pepsin (P00791 60-385): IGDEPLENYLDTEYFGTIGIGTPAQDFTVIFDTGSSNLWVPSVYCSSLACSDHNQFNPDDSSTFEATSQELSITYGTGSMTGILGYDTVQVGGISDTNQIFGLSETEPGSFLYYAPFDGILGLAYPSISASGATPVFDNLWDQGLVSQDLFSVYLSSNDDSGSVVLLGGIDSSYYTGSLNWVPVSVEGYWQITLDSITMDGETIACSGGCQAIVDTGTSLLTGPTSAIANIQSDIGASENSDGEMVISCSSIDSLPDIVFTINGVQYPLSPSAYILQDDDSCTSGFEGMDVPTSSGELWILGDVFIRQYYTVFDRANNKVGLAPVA

Compound	IC50 ([1]; 2 h)	IC50 ([1]; MTT, MCF-7, peptide treatment for 2 hours at 37°C, three independent experiments with n = 4, nonlinear regression, read-out: IC50)	IC50 MCF-7 ([1]; 2 h)	IC50 HeLa [2]	selectivity index IC50 fibroblasts/IC50 HeLa [3]	selectivity index IC50 fibroblasts/IC50 MCF-7 [3]	IC50 fibroblasts ([3]; 2 h)	IC50 HEK-293 [4]	IC50 erythrocytes [5]	selectivity index IC50 erythrocytes/IC50 HeLa [5]	selectivity index IC50 erythrocytes/IC50 MCF-7 [5]	proteolytic degradation by pepsin [6]	proteolytic degradation by trypsin, 10 min [7]
CC(C)C[C@H](NC(=O)[C@H](CCCCN)NC(=O)[C@H](CCCCN)NC(=O)[C@@H](NC(=O)[C@H](CCCNC(=N)N)NC(=O)[C@H](Cc1c[nH]c2ccccc12)NC(=O)[C@H](CCC(N)=O)NC(=O)[C@H](Cc1c[nH]c2ccccc12)NC(=O)[C@H](CCCNC(=N)N)NC(=O)[C@@H](N)CCCNC(=N)N)C(c1ccccc1)c1ccccc1)C(=O)NCC(=O)NCCCC[C@H](NC(=O)CNC(=O)[C@H](CC(C)C)NC(=O)[C@H](CCCCN)NC(=O)[C@H](CCCCN)NC(=O)[C@@H](NC(=O)[C@H](CCCNC(=N)N)NC(=O)[C@H](Cc1c[nH]c2ccccc12)NC(=O)[C@H](CCC(N)=O)NC(=O)[C@H](Cc1c[nH]c2ccccc12)NC(=O)[C@H](CCCNC(=N)N)NC(=O)[C@@H](N)CCCNC(=N)N)C(c1ccccc1)c1ccccc1)C(=O)NCCCCCC(N)=O [^26[Dip], (RRWQWR-Dip-KKLG)2-K-Ahx] (I: H-RRWQWR[Dip]KKLGK[Ahx]-NH2 / II: H-RRWQWR[Dip]KKLG; amide I:12-II:C)	34 µM	–	–	–	–	–	–	–	–	–	–	–	–
CC(C)C[C@H](NC(=O)[C@H](CCCCN)NC(=O)[C@H](CCCCN)NC(=O)[C@H](Cc1ccc(C(=O)c2ccccc2)cc1)NC(=O)[C@H](CCCNC(=N)N)NC(=O)[C@H](Cc1c[nH]c2ccccc12)NC(=O)[C@H](CCC(N)=O)NC(=O)[C@H](Cc1c[nH]c2ccccc12)NC(=O)[C@H](CCCNC(=N)N)NC(=O)[C@@H](N)CCCNC(=N)N)C(=O)NCC(=O)NCCCC[C@H](NC(=O)CNC(=O)[C@H](CC(C)C)NC(=O)[C@H](CCCCN)NC(=O)[C@H](CCCCN)NC(=O)[C@H](Cc1ccc(C(=O)c2ccccc2)cc1)NC(=O)[C@H](CCCNC(=N)N)NC(=O)[C@H](Cc1c[nH]c2ccccc12)NC(=O)[C@H](CCC(N)=O)NC(=O)[C@H](Cc1c[nH]c2ccccc12)NC(=O)[C@H](CCCNC(=N)N)NC(=O)[C@@H](N)CCCNC(=N)N)C(=O)NCCCCCC(N)=O [^26[Bpa], (RRWQWR-Bpa-KKLG)2-K-Ahx] (I: H-RRWQWR[Bpa]KKLGK[Ahx]-NH2 / II: H-RRWQWR[Bpa]KKLG; amide I:12-II:C)	–	17 µM	–	–	–	–	–	–	–	–	–	–	–
CC(C)C[C@H](NC(=O)[C@H](CCCCN)NC(=O)[C@H](CCCCN)NC(=O)[C@H](CCc1ccccc1)NC(=O)[C@H](CCCNC(=N)N)NC(=O)[C@H](Cc1c[nH]c2ccccc12)NC(=O)[C@H](CCC(N)=O)NC(=O)[C@H](Cc1c[nH]c2ccccc12)NC(=O)[C@H](CCCNC(=N)N)NC(=O)[C@@H](N)CCCNC(=N)N)C(=O)NCC(=O)NCCCC[C@H](NC(=O)CNC(=O)[C@H](CC(C)C)NC(=O)[C@H](CCCCN)NC(=O)[C@H](CCCCN)NC(=O)[C@H](CCc1ccccc1)NC(=O)[C@H](CCCNC(=N)N)NC(=O)[C@H](Cc1c[nH]c2ccccc12)NC(=O)[C@H](CCC(N)=O)NC(=O)[C@H](Cc1c[nH]c2ccccc12)NC(=O)[C@H](CCCNC(=N)N)NC(=O)[C@@H](N)CCCNC(=N)N)C(=O)NCCCCCC(N)=O [^26[hF], (RRWQWR-hF-KKLG)2-K-Ahx] (I: H-RRWQWR[hPhe]KKLGK[Ahx]-NH2 / II: H-RRWQWR[hPhe]KKLG; amide I:12-II:C)	18 µM	–	60(18) µg mL^−1	53(16) µg mL^−1	1.2	1.0	63(19) µg mL^−1	134(40) µg mL^−1	>200(>59) µg mL^−1	> 3.7	> 3.3	unaffected	two fragments were also generated
